Laboratory results published in patent US20110130421A1, “Methods and Compositions for the Treatment of Chronic Renal Hypertension” (Georgetown University, priority 2009, published 2011).
Entries after “also recorded” stand apart in the source; their conditions may differ.

Key:
essential hypertension = conditions: cited from earlier work
[1] = system: 2K,1C Goldblatt rats in the early stages of renal hypertension; conditions: early stage 2K,1C Goldblatt rats; prolonged administration; cited from earlier work
sham rats = assay: Acute interventions in anesthetized age-matched sham rats: MAP, cortical blood flow and renal pO2; type: in vivo, Sprague-Dawley rats
Procedure: (§1) As described in Welch et al., Hypertension, 41:692-696 (2003) and Palm et al., Hypertension, 51:345-351 (2008), young male Sprague-Dawley rats (80-100 g) were anesthetized with isoflurane (0.5-1.5%). A silver clip (0.2 mm) was placed around the left renal artery (2K,1C). Age-matched rats were used as controls (sham).
(§2) All rats received hydralazine+hydrochlorothiazide+reserpine (HHR; 30+10+0.2 mg·kg^−1·day^−1) in the drinking water as described in Welch et al., Kidney Int., 63:202-208 (2003) in order to maximize survival of the clipped rats. The HHR treatment was discontinued 14 days prior to undergoing the protocol described hereinafter.
Twelve months after clipping, all rats were anesthetized with Inactin (100 mg·kg^−1 i.p.; Sigma-Aldrich, St. Louis, Mo.), and an endotracheal tube was inserted for spontaneous respiration. […] The left kidney was immobilized in a plastic cup while renal cortical pO2 and cortical blood flow (CBF) were measured with O2 microelectrodes (Unisense, Aarhus, Denmark) and laser-Doppler needle probes (Transonic Systems Inc, Ithaca, N.Y.) as described in Palm et al., Diabetologia, 46:1153-1160 (2003); Palm et al., Hypertension, 51:345-351 (2008); and Liss et al., Pflügers Arch., 434:705-711 (1997). […]
The data in Example 1 was analyzed using ANOVA for multiple data sets and Student's t-test for paired comparisons. […] All values are expressed as mean±SEM.

[2] = solutions containing Tempol; cited from earlier work
[3] = reported, in contrast to early stage 2K,1C rats; similar results in a hypercholesterolemic pig model; cited from earlier work
[4] = system: chronic 2K,1C Goldblatt rats; assay: Acute interventions in anesthetized chronic 2K,1C rats twelve months after clipping: MAP, cortical blood flow and renal pO2 of the clipped kidney; type: in vivo, Sprague-Dawley rats
Procedure: as §1, §2
Twelve months after clipping, all rats were anesthetized with Inactin (100 mg·kg^−1 i.p.; Sigma-Aldrich, St. Louis, Mo.), and an endotracheal tube was inserted for spontaneous respiration. Rats were prepared according to the protocol described in Palm et al., Hypertension, 51:345-351 (2008). Briefly, the left femoral artery was catheterized for monitoring mean arterial blood pressure (MAP) and the left femoral vein for infusion of saline (5 ml·kg bw^−1·h^−1). The left kidney was immobilized in a plastic cup while renal cortical pO2 and cortical blood flow (CBF) were measured with O2 microelectrodes (Unisense, Aarhus, Denmark) and laser-Doppler needle probes (Transonic Systems Inc, Ithaca, N.Y.) as described in Palm et al., Diabetologia, 46:1153-1160 (2003); Palm et al., Hypertension, 51:345-351 (2008); and Liss et al., Pflügers Arch., 434:705-711 (1997).
Measurements in 2K,1C rats were made before and after injections of PD-123,319 (1 mg·kg bw^−1 bolus+1 mg·kg bw^−1·h^−1; Sigma Aldrich) followed 30 minutes later by either enalaprilat (0.3 mg·kg bw^−1 bolus+0.3 mg·kg bw^−l·h^−1; Novaplus 1.25 mg·m^−1; Baxter Healthcare Corporation, Deerfield, Ill.) or tempol (174 μmmol·kg bw^−1 bolus+174 μmmol·kg bw^−1·h^−1; Sigma Aldrich) followed 30 minutes later by enalaprilat or candesartan (1 mg·kg bw^−1 bolus+1 mg·kg bw^−1·h^−1; provided by Astra Zeneca, Södertälje Sweden) followed after 30 minutes by enalaprilat. […] See e.g., Duke et al., Br. J. Pharmacol., 144:486-492 (2005).
The data in Example 1 was analyzed using ANOVA for multiple data sets and Student's t-test for paired comparisons. When appropriate, this was followed by Dunnett's post hoc. […] The Mann-Whitney test was used for Western blot densitometry data. For all comparisons, p<0.05 was considered statistically significant. All values are expressed as mean±SEM.

normal rats = conditions: cited from earlier work
[5] = acute i.v. bolus + infusion of the agent alone
[6] = clipped kidney, agent alone, listed as tempol

In the case of `CC1(C)CC(O)CC(C)(C)N1[O]` [Tempol, 4-hydroxy-2,2,6,6-tetramethyl-1-piperidine-1-oxyl], the anti-hypertensive effect (essential hypertension) is listed as “demonstrated anti-hypertensive effect”, the “glomerular filtration rate (GFR)” value [1] is listed as “improved the glomerular filtration rate (GFR)” and the “mean arterial pressure (MAP)” value [1] is listed as “reduced mean arterial pressure (MAP)”. For the same compound, the “oxygen tension (pO2) of the clipped kidney” value [1] was “improved oxygen tension (pO2) of the clipped kidney”, the renal blood flow [1] was “improved renal blood flow” and the “renal cortical pO2” value (sham rats) was “not effective”. The “stability of solutions left in sunlight” value [2] was “discolor when left in sunlight”, the “renal blood flow, cortical perfusion or GFR” value [3] was “failed to improve renal blood flow, cortical perfusion or GFR” and the “mean arterial blood pressure (MAP)” value [4, 5] was “lowers MAP; also recorded: more effective in lowering MAP”. For the same compound, the “mean arterial blood pressure (MAP)” value ([4]; acute i.v. bolus + infusion of the agent alone, listed as tempol) was “significantly more effective”, the “renal cortical blood flow (CBF)” value ([4]; clipped kidney, agent alone) was “effectively increases both the cortical blood flow and the tissue pO2” and the “renal cortical pO2” value ([4]; clipped kidney, agent alone) was “effectively increases both the cortical blood flow and the tissue pO2”. The “renal medullary pO2” value ([4]; clipped kidney, agent alone) was “effectively increases both the cortical blood flow and the tissue pO2”, the “renal cortical blood flow (CBF)” value [4, 6] was “increased” and the “renal cortical pO2” value [4, 6] was “increased the cortical pO2”. For the same compound, the “renal medullary pO2” value [4, 6] was “increased the medullary pO2”.
In the case of `C[C@H](N[C@@H](CCc1ccccc1)C(=O)O)C(=O)N1CCC[C@H]1C(=O)O` [enalaprilat, reference compound], the “renal cortical pO2” value (sham rats) is reported as “increased cortical pO2”, the “renal cortical blood flow (CBF)” value ([4]; enalaprilat after tempol) is reported as “did not change further” and the “renal medullary pO2” value ([4]; enalaprilat after tempol) is reported as “did not change the medullary pO2 further”. The “renal cortical blood flow (CBF)” value ([4]; enalaprilat following candesartan) was “reduced significantly”, the “mean arterial blood pressure (MAP)” value ([4]; enalaprilat given 30 minutes after PD-123,319) was “did reduce the MAP” and the “mean arterial blood pressure (MAP)” value ([4]; enalaprilat given 30 minutes after candesartan) was “did not produce a further fall in MAP”. The “mean arterial blood pressure (MAP)” value ([4]; enalaprilat given 30 minutes after tempol) was “did not produce a further fall in MAP” and the “renal cortical pO2” value ([4]; tempol followed by enalaprilat) was “not changed significantly”.
In the case of `Cc1cc(Cn2cnc3c2C[C@@H](C(=O)O)N(C(=O)C(c2ccccc2)c2ccccc2)C3)ccc1N(C)C` [PD-123,319, reference compound], the “mean arterial pressure or kidney function” value (normal rats) is given as “has not been found to change mean arterial pressure or kidney function”, the “mean arterial blood pressure (MAP)” value [4, 5] is given as “unaffected” and the “renal cortical blood flow (CBF)” value ([4]; clipped kidney, agent alone) is given as “Neither candesartan nor PD-123,319 alone changed CBF significantly”.
